Test results as given in PMC8381602, “Non-palm Plant Volatile α-Pinene Is Detected by Antenna-Biased Expressed Odorant Receptor 6 in the Rhynchophorus ferrugineus (Olivier) (Coleoptera: Curculionidae)” (Frontiers in Physiology, 2021).

System: T1, RferOr6/RferOrco
T1 construct: full-length ORF of RferOr6 (382 residues, 7 predicted TMDs) cloned from antennal cDNA in pT7TS; cRNA co-injected 1:1 with RferOrco in Xenopus oocytes; with Odorant receptor coreceptor
Assay: two-electrode voltage clamp, Xenopus oocytes, dose-response
Assay type: cell-based, Rhynchophorus ferrugineus
Details: agonist; co-expressed with RferOrco 1:1; holding potential -80 mV; Ringer's buffer pH 7.6; 20 s exposure

With `CC1=CCC2CC1C2(C)C` (stereo not drawn) [α-pinene] the EC50 was 94.5 µM.
